# Assay results published in US11503827B2, “Stabilized chemical composition” (priority 2010, dated 2022).
# Assay: Dissolution of active ingredient in liquid epoxy resin mixture, by inspection
# Type: physicochemical
# Conditions: 1.0-1.5 g AI in 8 g 635 Thin Epoxy Resin and 4 g 556 2:1 Epoxy Hardener
# Protocol: Nine different individual resin mixtures were prepared by mixing together 8 g 635 Thin Epoxy Resin, 4 g 556 2:1 Epoxy Hardener and between 1.0 and 1.5 g of the following finely milled active ingredients: atrazine, azoxystrobin, bicylopyrone, cyproconazole, difenoconazole, mesotrione, prodiamine, thiabendazole, thiamethoxam. […] The samples were placed on a platform shaker overnight at room temperature and then examined by light microscopy. In every case the presence of a dispersion of epoxy resin particles of diameter approximately 100 microns was confirmed. Crystals of the active ingredient were visible inside the epoxy particles under polarized light, except that in the cases of bicyclopyrone and mesotrione individual crystals were not visible as these active ingredients had dissolved in the epoxy resin—in these cases the entire epoxy resin particle was slightly birefringent indicating the presence of crystal domains within the matrix.
row,Compound,dissolution of active ingredient in the liquid resin
1,COCCOCc1nc(C(F)(F)F)ccc1C(=O)C1=C(O)C2CCC(C2)C1=O (stereo not drawn) [bicylopyrone],fully dissolved
2,CC(C1CC1)C(O)(Cn1cncn1)c1ccc(Cl)cc1 (stereo not drawn) [cyproconazole],most of the cyproconazole was dissolved
3,CS(=O)(=O)c1ccc(C(=O)C2C(=O)CCCC2=O)c([N+](=O)[O-])c1 [mesotrione],fully dissolved
